Test results: patent publication US20120244094A1, “TETRAPEPTIDES FOR BRIGHTENING THE SKIN” (EVONIK GOLDSCHMIDT GMBH, priority 2009, published 2012)

How the values were obtained:
age spots on the face = test: Reduction of age spots on the face, half-side test, chromameter skin shade ITA°; assay type: in vivo, human; settings: applied twice daily for six weeks, FIG. 4; for ΔΔITA after 6-week application of the test formulations (reduction of age spots): 40 women, PKEK 0.004%, sodium ascorbyl phosphate 1.5%
Description: In order to quantify such age spots, color measurements of the skin are carried out. For this purpose, chromameters are used. The chromameter measures the color values L*, a* and b*. These describe a three-dimensional color space, with the help of which every perceivable color can be described, cf. FIG. 2. The end points are black (L=0) and white (L=100). In order to be able to classify the skin shade, the parameters L* and b* are required. The skin shade ITA° is given in degrees and calculated using the following formula: ITA°=[arctan((L*−50)/b*)]*180/3.14159 By means of the following study, the aim is to investigate whether the tetrapeptide PKEK is able to visibly reduce age spots. The study was carried out as a half-side test. 40 women aged between 30 and 70 years were selected who had visible age spots on the face. They were each given 2 test formulations, one for the right half of the face and the other for the left half of the face. The test formulations had to be applied twice daily over a period of six weeks. [table] Prior to the start of the study and also after 6 weeks, the color of the skin directly on the age spot was measured as well as in the adjoining area. This was performed using a CR 400 chromameter from Minolta. The skin shade ITA° was calculated both for the age spot (ITA°A) and also the adjoining area (ITA°U) and the difference was calculated: ΔITA°=ITA°U−ITA°A The greater ΔITA°, the more visible the age spot.

[1] = tested on: evenness of the skin appearance of dark-skinned women (Fitzpatrick type VI-V); test: Improvement in the skin appearance in dark-skinned people, visual assessment of evenness by an expert; assay type: in vivo, human; settings: 0.004% PKEK face cream twice daily, FIG. 5
Description: For the following study, dark-skinned women (Fitzpatrick type VI-V) were used. The Fitzpatrick scale serves to organize the different skin types:
In each case, 25 female subjects were given a face cream which comprised either the tetrapeptide PKEK or no active ingredient (vehicle). They had to apply this formulation twice daily over the entire face for a period of 12 weeks. Prior to the start of the study and also after 2, 4, 8 and 12 weeks, the evenness of the skin appearance was assessed visually by an expert.
A five-part scale was used for assessing the skin appearance:
5=no contrast, very even skin appearance 4=slight contrast, slightly irregular skin appearance 3=moderate contrast, irregular skin appearance 2=high contrast, highly irregular skin appearance 1=very high contrast, very highly irregular skin appearance

[2] = tested on: melanin concentration in the skin of the forearm; test: In vivo lightening (2-month study), melanin concentration measured with a Mexameter probe; parameters: species or system human; settings: 0.005% PKEK formulation, 20 subjects, compared to vehicle, FIG. 1
From the text: 20 subjects wore a test formulation without peptide or with 0.005% PKEK over a period of 8 weeks on one forearm in each case. Prior to the start of the study, and also after 8 weeks, a Mexameter probe (Courage & Khazaka, Cologne) was used to measure the melanin concentration both on the inside and also on the outside of the forearm. The measurement of the melanin concentration in the skin is based on the principle of absorption/reflection. The Mexameter probe emits light of a specific wavelength which is in agreement with the absorption maxima of the melanin in the skin. The light reflected by the skin is measured and placed relative to the emitted amount of light. The resulting measurement values are given as index numbers. [table]

Compound | ΔΔITA after 6-week application of the test formulations (reduction of age spots) (age spots on the face) | improvement in the evenness of the skin appearance (five-part visual scale) ([1]; after 12 weeks, vehicle shows no further improvement) | improvement in the evenness of the skin appearance compared with the vehicle ([1]; within the first 8 weeks, over the course of the time) | improvement in the evenness of the skin appearance (five-part visual scale) ([1]; within the first 8 weeks) | difference in the melanin values after 8 weeks compared to the starting value (decrease in skin brownness) ([2]; inside of the forearm) | difference in the melanin values after 8 weeks compared to the starting value (decrease in skin brownness) ([2]; outside of the forearm) | reduction of age spots, PKEK compared with sodium ascorbyl phosphate (age spots on the face; comparison of the single actives)
O=C1O[C@H]([C@@H](O)CO)C([O-])=C1OP(=O)([O-])[O-].[Na+].[Na+].[Na+] [sodium ascorbyl phosphate, reference compound] | visible reduction of the age spots |  |  |  |  |  | 
Pro Lys Glu Lys (PKEK) | visible reduction of the age spots | significantly improves the skin appearance yet further | increasingly greater over the course of the time than with the vehicle | visibly improved | significantly greater decrease in skin brownness | significantly greater decrease in skin brownness | greater reduction than sodium ascorbyl phosphate
